Experimental data reported in patent US20050101595A1, “N-containing cycloalkyl-substituted amino-thiazole derivatives and pharmaceutical compositions for inhibiting cell proliferation and methods for their use” (PFIZER INC., priority 2003, published 2005).
Where a name gives a salt, the structure may show the parent alone. Read-outs that look alike come from different tables or passages of the source.

Legend:
[1] = molecular target: human CDK4 and genetically truncated (1-264) cyclin D3 (Homo sapiens, UniProt P11802); assay: Inhibition of CDK4/Cyclin D Retinoblastoma Kinase Activity; assay type: biochemical; conditions: for Ki: apparent Ki, CDK4/truncated cyclin D3, Rb fragment substrate, 25 μM ATP
Chain of human CDK4 and genetically truncated (1-264) cyclin D3 (P11802 whole entry, the tested form may be a part): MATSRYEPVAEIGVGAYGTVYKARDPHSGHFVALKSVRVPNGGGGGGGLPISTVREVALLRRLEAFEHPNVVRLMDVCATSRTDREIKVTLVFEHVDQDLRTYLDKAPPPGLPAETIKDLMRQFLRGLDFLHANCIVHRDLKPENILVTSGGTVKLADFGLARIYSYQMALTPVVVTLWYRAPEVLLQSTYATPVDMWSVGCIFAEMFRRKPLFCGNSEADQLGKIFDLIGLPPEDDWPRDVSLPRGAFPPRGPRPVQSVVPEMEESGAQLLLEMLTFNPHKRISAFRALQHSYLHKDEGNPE
Chain of human CDK4 and genetically truncated (1-264) cyclin D3 (P30281 1-264 partner): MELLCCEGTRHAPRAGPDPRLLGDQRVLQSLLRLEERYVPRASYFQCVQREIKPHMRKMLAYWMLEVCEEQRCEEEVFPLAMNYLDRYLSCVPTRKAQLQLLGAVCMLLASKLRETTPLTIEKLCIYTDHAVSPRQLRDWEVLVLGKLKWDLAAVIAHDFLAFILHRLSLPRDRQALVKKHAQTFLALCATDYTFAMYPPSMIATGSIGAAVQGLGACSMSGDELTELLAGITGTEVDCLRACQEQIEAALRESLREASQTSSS
Method in brief: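 Apparent Ki values come from competitive or competitive tight-binding inhibition fits of background-corrected 32P/33P incorporation into His-tagged Rb fragment (386-928), captured on nitrocellulose. Reaction: 5 nM insect-cell-expressed human CDK4 with cyclin D3 (1-264), 25 μM ATP, pH 7.4 HEPES, 2% DMSO, 30° C., 20 min, extended to 60 min for tight-binding inhibitors.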

CDK2/Cyclin A = CDK2/Cyclin A (Homo sapiens, UniProt P24941); assay: Inhibition of CDK2/Cyclin A Retinoblastoma Kinase Activity; assay type: biochemical; conditions: for Ki: apparent Ki, CDK2/proteolyzed cyclin A, Rb fragment substrate, 25 μM ATP
Method in brief: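 Radiometric filter-binding readout of phosphate transfer to an Rb substrate fragment by purified CDK2/truncated cyclin A at 10 or 19 nM. Run at pH 7.4 with 25 μM ATP, 30 °C, 60–75 min, linear rates; background without enzyme subtracted, Ki from competitive-inhibition models.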

HCT-116 cell line = assay: Inhibition of cell growth, tetrazolium salt (MTT) assay; assay type: cell-based; conditions: for HCT-116 % Inhibition at 0.25 μM: 0.25 μM compound; for IC50: Homo sapiens, HCT-116, 120 h, MTT, three to five days, read-out: HCT-116 IC50
Method in brief: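 First, cells were seeded in McCoy's 5A medium and held 4 h. Next, inhibitor concentrations in 0.5% (v/v) DMSO were applied for three to five days at 37° C, 5% CO2. Finally, after 4 h with 0.2 mg/mL MTT and medium removal, solubilized formazan was measured at 540 nm.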

[2] = 0.1 μM compound, HCT-116, Table 4
[3] = 0.1 μM compound, HCT-116, Table 3

In the case of `CCN(CC)C(=O)N1CCC(Nc2nc(N)c(C(=O)c3c(F)cccc3F)s2)CC1` [Example Q3], the “CDK4 % Inhibition at 0.03 μM” value ([1]; 0.03 μM compound, Table 4) is reported as 11%, the “CDK2 % Inhibition at 0.03 μM” value (CDK2/Cyclin A; 0.03 μM compound, Table 4) is reported as −43% and the “HCT-116 % Inhibition at 0.1 μM” value (HCT-116 cell line; [2]) is reported as 0%. The “HCT-116 % Inhibition at 0.25 μM” value (HCT-116 cell line; HCT-116, Table 4) was 42%.
In the case of `CCCCc1ccc(C(=O)N2CCC(Nc3nc(N)c(C(=O)c4c(F)cccc4F)s3)CC2)cc1` [Example Q36], the “CDK4 % Inhibition at 0.03 μM” value ([1]; 0.03 μM compound, Table 4) is reported as 45%, the “CDK2 % Inhibition at 0.03 μM” value (CDK2/Cyclin A; 0.03 μM compound, Table 4) is reported as 16% and the “HCT-116 % Inhibition at 0.1 μM” value (HCT-116 cell line; [2]) is reported as 0.49%. The “HCT-116 % Inhibition at 0.25 μM” value (HCT-116 cell line; HCT-116, Table 4) was 31%.
With `Nc1nc(NC2CCN(C(=O)[C@@H]3C[C@H]3c3ccccc3)CC2)sc1C(=O)c1c(F)cccc1F` (relative stereo) [Example Q55] the “CDK4 % Inhibition at 0.03 μM” value ([1]; 0.03 μM compound, Table 4) was 43%, the “CDK2 % Inhibition at 0.03 μM” value (CDK2/Cyclin A; 0.03 μM compound, Table 4) was 29% and the “HCT-116 % Inhibition at 0.1 μM” value (HCT-116 cell line; [2]) was 10%. For the same compound, the “HCT-116 % Inhibition at 0.25 μM” value (HCT-116 cell line; HCT-116, Table 4) was 31%.
`Nc1nc(NC2CCN(C(=O)n3ccnc3)CC2)sc1C(=O)c1c(F)cccc1F` [Example C17, {4-[4-Amino-5-(2,6-difluoro-benzoyl)-thiazol-2-ylamino]-piperidin-1-yl}-imidazol-1-yl-methanone] was tested, and the Ki [1] was 0.021 µM, the Ki (CDK2/Cyclin A) was 0.017 µM and the IC50 (HCT-116 cell line; first HCT-116 column (c4)) was 2.1 µM. The IC50 (HCT-116 cell line; second HCT-116 column (c5)) was 4.4 µM.
With `Nc1nc(NC2CCN(C(=O)C3CC3)CC2)sc1C(=O)c1c(F)cccc1F` [Example Q54] the “CDK4 % Inhibition at 0.03 μM” value ([1]; 0.03 μM compound, Table 4) was 18%, the “CDK2 % Inhibition at 0.03 μM” value (CDK2/Cyclin A; 0.03 μM compound, Table 4) was −2% and the “HCT-116 % Inhibition at 0.1 μM” value (HCT-116 cell line; [2]) was 0%. The “HCT-116 % Inhibition at 0.25 μM” value (HCT-116 cell line; HCT-116, Table 4) was 35%.
With `Cc1cccc(S(=O)(=O)N2CCC(Nc3nc(N)c(C(=O)c4c(F)cccc4F)s3)CC2)c1` [Example P37] the “CDK4 % Inhibition at 0.03 μM” value ([1]; 0.03 μM compound, Table 3) was 65%, the “CDK2 % Inhibition at 0.03 μM” value (CDK2/Cyclin A; 0.03 μM compound, Table 3) was 58% and the “HCT-116 % Inhibition at 0.1 μM” value (HCT-116 cell line; [3]) was 0%. The “HCT-116 % Inhibition at 0.25 μM” value (HCT-116 cell line; HCT-116, Table 3) was 27%.
For `Nc1nc(NC2CCN(S(=O)(=O)c3cc(Cl)sc3Cl)CC2)sc1C(=O)c1c(F)cccc1F` [Example P35], the “CDK4 % Inhibition at 0.03 μM” value ([1]; 0.03 μM compound, Table 3) was 47%, the “CDK2 % Inhibition at 0.03 μM” value (CDK2/Cyclin A; 0.03 μM compound, Table 3) was 37% and the “HCT-116 % Inhibition at 0.1 μM” value (HCT-116 cell line; [3]) was 1%. The “HCT-116 % Inhibition at 0.25 μM” value (HCT-116 cell line; HCT-116, Table 3) was 22%.
For `Cn1cc(S(=O)(=O)N2CCC(Nc3nc(N)c(C(=O)c4c(F)cccc4F)s3)CC2)nc1Br` [Example F48, {4-Amino-2-[1-(2-bromo-1-methyl-1H-imidazole-4-sulfonyl)-piperidin-4-ylamino]-thiazol-5-yl}-(2,6-difluoro-phenyl)-methanone], the inhibition at 0.05 µM [1] was 37%, the Ki (CDK2/Cyclin A) was 0.0076 µM and the IC50 (HCT-116 cell line; first HCT-116 column (c4)) was 3.2 µM. It also gave an IC50 (HCT-116 cell line; second HCT-116 column (c5)) of 5 µM.
`Nc1nc(NC2CCN(S(=O)(=O)CCNC3CCS(=O)(=O)C3)CC2)sc1C(=O)c1c(F)cccc1F` (centres unmarked) [Example K31, (4-Amino-2-{1-[2-(1,1-dioxo-tetrahydro-1-lamda-6-thiophen-3-ylamino)-ethanesulfonyl]-piperidin-4-ylamino}-thiazol-5-yl)-(2,6-difluoro-phenyl)-methanone Trifluoroacetic Acid Salt.] showed a Ki [1] of 0.0043 µM, a Ki (CDK2/Cyclin A) of 0.0055 µM and an IC50 (HCT-116 cell line; first HCT-116 column (c4)) of over 5 µM. For the same compound, the IC50 (HCT-116 cell line; second HCT-116 column (c5)) was over 5 µM.
`Nc1nc(NC2CCN(S(=O)(=O)c3cnc(OCCN4CCCCC4)nc3)CC2)sc1C(=O)c1c(F)cccc1F` [Example H23, (4-Amino-2-{1-[2-(2-piperidin-1-yl-ethoxy)-pyrimidine-5-sulfonyl]-piperidin-4-ylamino}-thiazol-5-yl)-(2,6-difluoro-phenyl)-methanone Trifluoroacetic Acid Salt] showed a Ki [1] of 0.00052 µM, a Ki (CDK2/Cyclin A) of 0.0015 µM and an IC50 (HCT-116 cell line; first HCT-116 column (c4)) of 0.093 µM. For the same compound, the IC50 (HCT-116 cell line; second HCT-116 column (c5)) was 1.5 µM.
For `COc1ccc(C(=O)N2CCC(Nc3nc(N)c(C(=O)c4c(F)cccc4F)s3)CC2)cc1` [Example Q28], the “CDK4 % Inhibition at 0.03 μM” value ([1]; 0.03 μM compound, Table 4) was 82%, the “CDK2 % Inhibition at 0.03 μM” value (CDK2/Cyclin A; 0.03 μM compound, Table 4) was 53% and the “HCT-116 % Inhibition at 0.1 μM” value (HCT-116 cell line; [2]) was 6%. For the same compound, the “HCT-116 % Inhibition at 0.25 μM” value (HCT-116 cell line; HCT-116, Table 4) was 41%.
For `CCOC(=O)CNC(=O)N1CCC(Nc2nc(N)c(C(=O)c3c(F)cccc3F)s2)CC1` [Example O30], the “CDK4 % Inhibition at 0.03 μM” value ([1]; 0.03 μM compound, Table 2) was 16%, the “CDK2 % Inhibition At 0.03 μM” value (CDK2/Cyclin A; 0.03 μM compound, Table 2) was 27% and the “HCT-116 % Inhibition at 0.25 μM” value (HCT-116 cell line; HCT-116, Table 2) was 31%.
In the case of `Nc1nc(NC2CCN(C(=O)c3sccc3Cl)CC2)sc1C(=O)c1c(F)cccc1F` [Example R51], the “CDK4 % Inhibition at 0.03 μM” value ([1]; at 0.03 μM) is reported as 48%, the “CDK2 % Inhibition at 0.03 μM” value (CDK2/Cyclin A; at 0.03 μM) is reported as 62% and the “HCT-116 % Inhibition at 0.1 μM” value (HCT-116 cell line; HCT-116 cells, at 0.1 μM) is reported as 0%. The “HCT-116 5 Inhibition at 0.25 μM” value (HCT-116 cell line; HCT-116 cells, at 0.25 μM) was 37.
In the case of `Nc1nc(NC2CCN(S(=O)(=O)c3cccc(Br)c3)CC2)sc1C(=O)c1c(F)cccc1F` [Example P46], the “CDK4 % Inhibition at 0.03 μM” value ([1]; 0.03 μM compound, Table 3) is reported as 68%, the “CDK2 % Inhibition at 0.03 μM” value (CDK2/Cyclin A; 0.03 μM compound, Table 3) is reported as 59% and the “HCT-116 % Inhibition at 0.1 μM” value (HCT-116 cell line; [3]) is reported as 10%. For the same compound, the “HCT-116 % Inhibition at 0.25 μM” value (HCT-116 cell line; HCT-116, Table 3) was 20%.
`Nc1nc(NC2CCN(C(=O)c3ccccc3Br)CC2)sc1C(=O)c1c(F)cccc1F` [Example Q10] was tested, and the “CDK4 % Inhibition at 0.03 μM” value ([1]; 0.03 μM compound, Table 4) was 57%, the “CDK2 % Inhibition at 0.03 μM” value (CDK2/Cyclin A; 0.03 μM compound, Table 4) was 23% and the “HCT-116 % Inhibition at 0.1 μM” value (HCT-116 cell line; [2]) was 1%. The “HCT-116 % Inhibition at 0.25 μM” value (HCT-116 cell line; HCT-116, Table 4) was 42%.
